Laboratory results reported in patent publication US6528653B2, “Thienopyrrolidinones” (Hoffmann-La Roche, Inc., priority 2000, dated 2003).

System: LPS-induced TNF-α production in THP-1 cells
Assay: Inhibition of LPS-induced TNF-α production in THP-1 cells (TNF-α ELISA)
Assay type: cell-based
Settings: Homo sapiens, 30 min preincubation with compound, LPS 4 hours, TNF-α in supernatant by ELISA, percentage of DMSO control
Method: The assay uses a modification of the methods described in Blifield et al., Transplantation, 51:498-503 (1991).
(a) Induction of TNF Biosynthesis
THP-1 cells were suspended in serum free culture medium LGM-3 (Clonetics, Bio Whittaker, UK, Cat. No. CC-3211), at a concentration of 5×10^5 cells/ml and then plated in 96 well-plates (0.2 ml aliquots in each well). Test compounds were dissolved in DMSO and then diluted with the culture medium such that the final DMSO concentration was 1%. Twenty five μl aliquots of test solution or only medium with DMSO (control) were added to each well giving a final DMSO concentration of 0.1%. The cells were incubated for 30 min. at 37° C. LPS (Sigma Chemical Company, UK) was added to the wells at a final concentration of 2 μg/nml, and cells were incubated for an additional 4 hours. At the end of the incubation period, culture supernatants were collected and the amount of TNF-α present was determined using a commercial TNF-α ELISA assay as described below.
(b) ELISA Assay. Quantikine™ human TNF-α (R&D Systems Europe Ltd., UK) (Cat. No. DTA50 in 2000)
The assay was carried out according to the manufacturer's instructions with the following modifications. Assay plates were centrifuged at 200 g and a 200 μl sample added to each well. TNF-α standard was made up and diluted in LGM-3 culture medium. Samples in the ELISA plate were then incubated overnight at 4° C. instead of 2 hours at 37° C. TNF-α production for each condition was calculated and expressed as a percentage of DMSO control to enable IC50 calculation.

SMILES	IC50
O=C1Nc2sccc2/C1=C/c1ccc[nH]1 [Example 1, (Z)-4,6-Dihydro-4-[(1H-pyrrol-2yl)methylene]thieno[2,3-b]pyrrol-5-one]	5.08 µM
O=C1Nc2sccc2/C1=C/c1c[nH]nc1-c1ccccc1 [Example 9, (Z)-4,6-Dihydro-4-[(3-phenyl-1H-pyrazol-4-yl)methylene]-thieno[2,3-b]pyrrol-5-one]	1.1 µM
COc1cc[nH]c1/C=C1\C(=O)Nc2sccc21 [Example 13, (Z)-4,6-Dihydro-4-[(3-methoxy-1H-pyrrol-2-yl)methylene]-thieno[2,3-b]pyrrol-5-one]	1.59 µM
N#Cc1cc2c(s1)NC(=O)/C2=C\c1ccc[nH]1 [Example 20, (Z)-5,6-Dihydro-5-oxo-4-[(1H-pyrrol-2-yl)methylene]-4H-thieno[2,3-b]pyrrole-2-carbonitrile]	3.69 µM
